Assay results published in US8178688B2, “Benzamidine derivatives, process for the preparation thereof and pharmaceutical composition comprising the same” (Dong Wha Pharmaceutical Co., Ltd., priority 2004, dated 2012).
Read-outs that look alike come from different tables or passages of the source.

Tested on: osteoclast differentiation
Assay: Inhibitory effects on osteoclast differentiation (co-culture of bone marrow cells with osteoblast, TRAP staining)
Type: cell-based, mice
Conditions: for inhibition at 1 µM: Mus musculus, Osteoclast, 168 h, read-out: % inhibitory activity on osteoclastogenesis
In short: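 Bone marrow cells from 6–8-week male ddY mice co-cultured with neonatal ICR mouse calvarial osteoblasts in α-MEM/FBS with dexamethasone (10^−7M) and vitamin D3 (10^−8M) for 7 days, compound and medium renewed every 2–3 days. TRAP-positive cells with ≥3 nuclei counted; inhibition given as percent of control.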

[1] = 1 m, co-culture of bone marrow cells and osteoblast, 7 days, TRAP-positive osteoclasts versus controls
[2] = co-culture of bone marrow cells and osteoblast, 7 days, TRAP-positive osteoclasts versus controls
[3] = 1 μm, co-culture of bone marrow cells and osteoblast, 7 days, TRAP-positive osteoclasts versus controls

| Structure (SMILES) | inhibition at 1 µM [1] | also measured |
| --- | --- | --- |
| Cc1nc(-c2ccc(OCCCCCOc3ccc(C(=N)NO)cc3)cc2F)c(C(C)C)s1 [Example 191, N-hydroxy-4-(5-[3-fluoro-4-(5-isopropyl-2-methyl-1,3-thiazol-4-yl)-phenoxy]-pentoxy)-benzamidine] | 8.8% |  |
| CCc1sc(N(C)Cc2cccnc2)nc1-c1ccc(OCCCCOc2ccc(C(=N)NO)cc2)cc1 [Example 200, N-hydroxy-4-(4-[4-(5-ethyl-2-[methyl-(pyridin-3-yl-methyl)amino]-thiazol-4-yl)phenoxy]butoxy)-benzamidine] | 38.7% |  |
| N=C(NO)c1ccc(OCCCCCOc2ccc(-c3nc(N)sc3CCCl)cc2)cc1 [Example 77, N-hydroxy-4-(5-[4-(5-(2-chloroethyl)-2-amino-1,3-thiazol-4-yl)phenoxy]pentoxy)-benzamidine] | 83.3% |  |
| N=C(NO)c1ccc(OCc2ccc(COc3ccc(-c4nc(N)sc4CC4CCCC4)cc3)cc2)cc1 [Example 203, N-hydroxy-4-(4-[4-(5-cyclopentylnnethyl-2-amino-thiazol-4-yl)-phenoxymethyl]-benzyloxy)-benzamidine] |  | % inhibitory activity on osteoclastogenesis [2]: 68.8% |
| Cc1sc(N(CCO)CCO)nc1-c1ccc(OCCCCCOc2ccc(C(=N)NO)cc2)cc1 [Example 128, N-hydroxy-4-(5-[4-(2-(bis-(2-hydroxyethyl)-amino)-5-methyl-1,3-thiazol-4-yl)phenoxy]pentoxy)-benzamidine] | 75.5% |  |
| N=C(NO)c1ccc(OCc2ccc(COc3ccc(-c4nc(C5CCCCC5)sc4CC4CCCC4)cc3)cc2)cc1 [Example 210, N-hydroxy-4-(4-[4-(5-cyclopentylmethyl-2-cyclohexyl-thiazol-4-yl)-phenoxymethyl]-benzyloxy)-benzamidine] | 68.8% |  |
| C=Cc1sc(N2CCOCC2)nc1-c1ccc(OCCCCCOc2ccc(C(=N)NO)cc2)cc1 [Example 171, N-hydroxy-4-(5-[4-(5-vinyl-2-morpholin-4-yl-1,3-thiazol-4-yl)phenoxy]pentoxy)-benzamidine] | 96.2% |  |
| CCS(=O)(=O)N(C)c1nc(-c2ccc(OCCCCCOc3ccc(C(=N)NO)cc3)cc2)c(C(C)C)s1 [Example 142, N-hydroxy-4-(5-[4-(2-(ethanesulfonyl-methyl-amino)-5-isopropyl-1,3-thiazol-4-yl)phenoxy]pentoxy)-benzamidine] | 54.1% |  |
| C=Cc1sc(N)nc1-c1ccc(OCCCCCOc2ccc(C(=N)NO)cc2)cc1 [Example 78, N-hydroxy-4-(5-[4-(5-vinyl-2-amino-1,3-thiazol-4-yl)phenoxy]pentoxy)-benzamidine] | 97.5% |  |
| CCCCc1sc(-c2ccccc2)nc1-c1ccc(OCCCCCOc2ccc(C(=N)NO)cc2)cc1 [Example 33, N-hydroxy-4-(5-[4-(5-butyl-2-phenyl-1,3-thiazol-4-yl)phenoxy]pentoxy)-benzamidine] |  | inhibition at 1 µM [3]: 49.5% |
| CCCCc1sc(NCC)nc1-c1ccc(OCCCCCOc2ccc(C(=N)NO)cc2)cc1 [Example 106, N-hydroxy-4-(5-[4-(5-butyl-2-ethylamino-1,3-thiazol-4-yl)phenoxy]pentoxy)-benzamidine] | 0% |  |
| Cc1sc(N2CCCCC2)nc1-c1ccc(OCCCCCOc2ccc(C(=N)NO)cc2)cc1 [Example 164, N-hydroxy-4-(5-[4-(5-methyl-2-piperdino-1,3-thiazol-4-yl)phenoxy]pentoxy)-benzamidine] |  | % inhibitory activity on osteoclastogenesis [2]: 67.4% |
| COCCNc1nc(-c2ccc(OCCCCCOc3ccc(C(=N)NO)cc3)cc2)c(C)s1 [Example 94, N-hydroxy-4-(5-(4-(2-(2-methoxyethyl)amino-5-methyl-1,3-thiazol-4-yl)phenoxy]pentoxy)-benzamidine] | 77.2% |  |
| CCCCCc1nc(-c2ccc(OCCCCCOc3ccc(C(=N)NO)cc3)cc2)c(C(C)C)s1 [Example 28, N-hydroxy-4-(5-[4-(5-isopropyl-2-pentyl-1,3-thiazol-4-yl)phenoxy]pentoxy)-benzamidine] |  | inhibition at 1 µM: 29.6% |
| CCc1nc(-c2ccc(OCCCCCOc3ccc(C(=N)NO)cc3)cc2)cs1 [Example 4, N-hydroxy-4-(5-[4-(2-ethyl-1,3-thiazol-4-yl)phenoxy]pentoxy)-benzamidine] |  | inhibition at 1 µM [3]: 81.1% |
| CCc1sc(N(C)CCN2CCOCC2)nc1-c1ccc(OCCCCCOc2ccc(C(=N)NO)cc2)cc1 [Example 131, N-hydroxy-4-(5-[4-(5-ethyl-2-(methyl-(2-morpholinoethyl)-amino)-1,3-thiazol-4-yl)phenoxy]pentoxy)-benzamidine] | 69% |  |
| Cc1sc(N(C)CCN2CCOCC2)nc1-c1ccc(OCCCCCOc2ccc(C(=N)NO)cc2)cc1 [Example 123, N-hydroxy-4-(5-[4-(5-methyl-2-(methyl-(2-morpholinoethyl)-amino)-1,3-thiazol-4-yl)phenoxy]pentoxy)-benzamidine] | 26.3% |  |

| Structure (SMILES) | inhibition at 1 µM [1] | also measured |
| --- | --- | --- |
| CCc1sc(C2CCCCC2)nc1-c1ccc(OCCCCOc2ccc(C(=N)NO)cc2)cc1 [Example 196, N-hydroxy-4-(4-[4-(2-cyclohexyl-5-ethyl-thiazol-4-yl)-phenoxy]-butoxy)-benzamidine] | 82% |  |
| CCc1sc(NCc2cccnc2)nc1-c1ccc(OCCCCCOc2ccc(C(=N)NO)cc2)cc1 [Example 117] |  | % inhibitory activity on osteoclastogenesis [2]: 2.7% |
| CCN(CC)c1nc(-c2ccc(OCCCCCOc3ccc(C(=N)NO)cc3)cc2)c(C(C)C)s1 [Example 162, N-hydroxy-4-(5-[4-(5-isopropyl-2-diethylamino-1,3-thiazol-4-yl)phenoxy]pentoxy)-benzamidine] | 87.4% |  |
| CC(C)c1sc(-c2ccccc2)nc1-c1ccc(OCCCCCOc2ccc(C(=N)NO)cc2)cc1 [Example 26, N-hydroxy-4-(5-[4-(5-isopropyl-2-phenyl-1,3-thiazol-4-yl)phenoxy]pentoxy)-benzamidine] |  | inhibition at 1 µM [3]: 42.9% |
| CCc1sc(NCCOC)nc1-c1ccc(OCCCCCOc2ccc(C(=N)NO)cc2)cc1 [Example 102, N-hydroxy-4-(5-[4-(5-ethyl-2-(2-methoxyethyl)amino-1,3-thiazol-4-yl)phenoxy]pentoxy)-benzamidine] | 96.4% |  |
| CC(C)c1sc(CN)nc1-c1ccc(OCCCCCOc2ccc(C(=N)NO)cc2)cc1 [Example 73, N-hydroxy-4-(5-[4-(5-isopropyl-2-aminomethyl-1,3-thiazol-4-yl)phenoxy]pentoxy)-benzamidine] | 54.2% |  |
| CCCOc1cc(OCCCCCOc2ccc(C(=N)NO)cc2)c(CC)cc1-c1csc(C)n1 [Example 213, N-hydroxy-4-(5-[2-ethyl-4-(2-methyl-thiazol-4-yl)-5-propoxy-phenoxy]-pentyloxy)-benzamidine] | 91.8% |  |
| N=C(NO)c1ccc(OCCCCCOc2ccc(-c3nc(N)sc3C3CCCC3)cc2)cc1 [Example 81, N-hydroxy-4-(5-[4-(2-amino-5-cyclopentyl-1,3-thiazol-4-yl)phenoxy]pentoxy)-benzamidine] | 29.5% |  |
| Cc1nc(-c2ccc(OCCOCCOc3ccc(C(=N)NO)cc3)cc2)c(C(C)C)s1 [Example 178, N-hydroxy-4-(2-[2-(4-(5-isopropyl-2-methyl-1,3-thiazol-4-yl)phenoxy)-ethoxy]-ethoxy)-benzamidine] | 36.8% |  |
| Cc1nc(-c2ccc(OCCCCCOc3ccc(C(=N)N)cc3)cc2)c(C)s1 [Example 54, 4-(5-[4-(2,5-dimethyl-1,3-thiazol-4-yl)phenoxy]pentoxy)-benzamidine] |  | inhibition at 1 µM [3]: 94.2% |
| CC(C)c1sc(NCc2cccnc2)nc1-c1ccc(OCCCCCOc2ccc(C(=N)NO)cc2)cc1 [Example 114, N-hydroxy-4-(5-[4-(5-isopropyl-2-[(pyridin-3-yl-methyl)amino]-1,3-thiazol-4-yl)phenoxy]pentoxy)-benzamidine] | 50.9% |  |
| CCc1sc(-c2ccccc2)nc1-c1ccc(OCCCCCOc2ccc(C(=N)N)cc2)cc1 [Example 56, 4-(5-[4-(5-ethyl-2-phenyl-1,3-thiazol-4-yl)phenoxy]pentoxy)-benzamidine] |  | inhibition at 1 µM [3]: 58.7% |
| CN(C)c1nc(-c2ccc(OCCCCCOc3ccc(C(=N)NO)cc3)cc2)c(CC2CCCC2)s1 [Example 163, N-hydroxy-4-(5-[4-(5-cyclopentylmethyl-2-dimethylamino-1,3-thiazol-4-yl)phenoxy]pentoxy)-benzamidine] | 88.1% |  |
| Cc1sc(NC(=O)CO)nc1-c1ccc(OCCCCCOc2ccc(C(=N)NO)cc2)cc1 [Example 90, N-hydroxy-4-(5-[4-(2-hydroxyacetylamino-5-methyl-1,3-thiazol-4-yl)phenoxy]pentoxy)-benzamidine] | 61.9% |  |
| Cc1nc(-c2ccc(OCC(C)NCCOc3ccc(C(=N)NO)cc3)cc2)c(C(C)C)s1 (stereo not drawn) [Example 180, N-hydroxy-4-(2-[2-(4-(5-isopropyl-2-methyl-1,3-thiazol-4-yl)-phenoxy)-1-methyl-ethylamino]-ethoxy)-benzamidine] | 32.6% |  |
| CCCCc1sc(NC(=N)N)nc1-c1ccc(OCCCCCOc2ccc(C(=N)NO)cc2)cc1 [Example 64, N-hydroxy-4-(5-[4-(5-butyl-2-guanidino-1,3-thiazol-4-yl)phenoxy]pentoxy)-benzamidine] | 43.7% |  |
